# Assay results from patent publication US20250326799A1, “AGENTS INDUCING VASCULARISATION” (Coegin Pharma AB, priority 2022, published 2025).
# What was measured:
# [1] = tested on: human umbilical vascular endothelial cells (HUVECs); experiment: Low-oxygen induced apoptosis, active caspase-3/-7, HUVECs; type: cell-based
# Procedure: The impact of FOL-026 peptide on human umbilical vascular endothelial cells (HUVECs) proliferation (FIG. 18a) and apoptosis (FIG. 18c) induced with low-oxygen condition was determined by BrdU uptake (n=8-9 per group) and active caspase-3/-7 (n=7-10 per group) separately. The ROS level (FIG. 18b) activated by 50 ug/ml oxidized Low-density Lipoprotein (oxLDL) for 2 hours in cells pre-incubated with FOL-026 peptides was assessed using H2O2 measurement (n=4-8 per group). Representative pictures of endothelial migration into an in vitro scratch injury were shown (FIG. 19a) and the wound closure rate (FIG. 19b) in HUVECs stimulated with increasing concentration of FOL-026 peptide was quantified by image J software (n=8-9 per group). Scale bar=150 um. Data are presented as means±SEM and acquired from 3 to 4 independent replicate tests. *P<0.05, **P<0.01, ****P<0.0001 by one-way ANOVA and Dunnett's post-hoc test.
# The efficiency of small interfering RNA transfection for 48 hours in HUVECs was confirmed by qRT-PCR (n=4) (FIG. 22a). […]
# [2] = Vessel density, CD31+ positive area; details: in vivo
# Procedure: Quantified measurement of total length (FIG. 20b), total master segments length (FIG. 20c), total branching length (FIG. 20d) and total segments length (FIG. 20e) were performed to evaluate angiogenesis in vitro (n=7 per group for FIG. 29 b-e). The quantification of vessel density was assessed with CD31+ positive area (FIG. 21a, n=13 per group). Western blot analysis of phosphorylated AKT (pAKT-T308), AKT, phosphorylated ERK1/2 (p-ERK1/2) and ERK1/2 in endothelial cells stimulated with FOL-26 peptides for 48 hours (FIG. 21b). Quantification of phosphorylation intensities normalized to respective total expressions (FIG. 21c-d, n=3 per group).
# [3] = tested on: Human umbilical cord endothelial cells (HUVECs); experiment: Gene expression by PCR in endothelial cells; type: cell-based
sequence,measurement,setting,value
VDTYDGGISVVYGLR [FOL-026],cell apoptosis at 0.1% oxygen after NRP-1 knock-down (active caspase-3/-7),[1]; HUVECs transfected with siRNA-NC or siNRP-1,blocks the effect
same,low oxygen induced apoptosis (active caspase-3/-7),"[1]; HUVECs, low-oxygen condition",alleviates the effect of low oxygen induced apoptosis
same,vessel density (CD31+ positive area),[2],increased vessel density
same,VEGFR-2 gene expression,[3]; 10 nM,reduced
same,TNF-α gene expression,[3]; 10 nM and 100 nM,reduced
same,IL-6 gene expression,"[3]; 10 nM, 100 nM, 1000 nM tested",no effect
same,MMP3 gene expression,"[3]; 10 nM, 100 nM, 1000 nM tested",no effect
same,VEGF-A gene expression,"[3]; 10 nM, 100 nM, 1000 nM tested",no effect
same,c-Met gene expression,"[3]; 10 nM, 100 nM, 1000 nM tested",reducing
same,NRP-1 gene expression,[3]; 100 nM and 1000 nM,inducing
same,MMP2 gene expression,[3]; 200 nM and 1000 nM,induced
same,VEGFR-2 gene expression,[3]; 1000 nM,induced
same,NRP-1 gene expression,[3]; lowest dose (10 nM),reducing
